The source of these data is ChEMBL document CHEMBL1201862, “PubChem BioAssay data set” (2004).

What all share (test): growth of human tumour cells (NCI), 48 h
Assay [1] concerns HCT-116.
The subject of assay [2] is CAKI-1.
Assay [3] has as its system IGROV-1.
Assay [4] relates to OVCAR-3.
Assay [5] relates to OVCAR-5.
The test system of assay [6] is RPMI-8226.
Assay [7] concerns HL-60.
Assay [8] relates to SF-539.
In assay [9] the test system is SN12C.
The subject of assay [10] is NCI-H460.
For assay [11], the system named is K562.
Assay [12] has as its system UACC-257.
Assay [13] relates to A549.
In assay [14] the test system is EKVX.
Assay [15] relates to CCRF-CEM.
The test system of assay [16] is SNB-19.
Assay [17] deals with SF-268.
The subject of assay [18] is COLO 205.
Assay [19] has as its system KM12.
The test system of assay [20] is SK-MEL-28.

SMILES strings stand for the structures.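 48-hour exposure; five concentrations; linearly interpolated endpoints. Here, GI50 denotes the concentration required for 50% inhibition of growth.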 The source made the active and inactive calls. No stated cut-off is given here; in the data, active = GI50 up to about 1.1 µM and inactive = higher.

Regarding `CCCCN1C=CN2c3nc4cc(C)c(C)cc4n3C(C(=O)OC)=C(C(=O)OC)C12` (stereo unspecified), the GI50 in assay [1], in assay [2], in assay [3], in assay [4], in [5] and in assay [6] was > 100 µM (inactive) in each case. Also, the GI50 in [7], in [8], in [9], in assay [10], in assay [11] and in assay [12] was > 100 µM (inactive) each time. For the same compound, the GI50 in assay [13], in assay [14], in assay [15], in [16] and in [17] was > 100 µM (inactive) each time.

For `CC(C)=CCc1c(O)ccc2c1OC1c3ccc(O)c(CC=C(C)C)c3OCC21` (stereo unspecified), the GI50 in [1] was 5.12 µM (inactive); in assay [2], 9.02 µM (inactive); in assay [3] it was 10.3 µM (inactive); in assay [4], 13.6 µM (inactive); in assay [5], 13.9 µM (inactive); in [18], 17.3 µM (inactive). The GI50 in assay [6] is 3.28 µM (inactive); in assay [7], 4.32 µM (inactive); in assay [8], 10.5 µM (inactive); in assay [9], 14 µM (inactive); in assay [10] it was 5.15 µM (inactive); in assay [11], 4.42 µM (inactive). Besides, the GI50 was 13.8 µM (inactive) in assay [12]; 10.2 µM (inactive) in [19]; 7.94 µM (inactive) in assay [13]; 5.62 µM (inactive) in assay [14]; 6.62 µM (inactive) in assay [15]; 13.6 µM (inactive) in assay [16]. In addition, the figures for the GI50 in assay [17] and in assay [20] were 11.2 µM (inactive) and 13.4 µM (inactive), respectively.

As for `COC(=O)C1=C(OC(=O)/C(=C/c2ccc(Cl)cc2)c2ccc(Cl)cc2)C(C(=O)OC)[C@]2(O)[C@@H](C(=O)OC)[C@H]1C[C@@H](c1ccccc1)[C@@H]2C(=O)OC` (stereo partly specified), the GI50 in [1] is > 100 µM (inactive); in assay [2], > 100 µM (inactive); in assay [3] it was 38.8 µM (inactive); in assay [4], 27 µM (inactive); in assay [5], > 100 µM (inactive); in [18] it was > 100 µM (inactive). Moreover, the GI50 in assay [7] was > 100 µM (inactive); in assay [8], > 100 µM (inactive); in [9], > 100 µM (inactive); in assay [10], > 100 µM (inactive); in [11] it was 91.6 µM (inactive); in assay [12] it was > 100 µM (inactive). In addition, the GI50 in assay [19] is > 100 µM (inactive); in assay [13], 52.8 µM (inactive); in [14] it was 70.5 µM (inactive); in assay [16], 59 µM (inactive); in [17], > 100 µM (inactive); in assay [20], > 100 µM (inactive).

Turning to `COc1cc(/C=C(\C#N)C(N)=O)cc(Br)c1O`, the GI50 in assay [1] was > 100 µM (inactive); in assay [2] it was > 100 µM (inactive); in assay [3], > 100 µM (inactive); in assay [4], > 100 µM (inactive); in assay [5], > 100 µM (inactive); in assay [6], 70 µM (inactive). In addition, the GI50 in assay [8], in assay [10], in assay [12], in assay [19], in assay [13] and in assay [15] was > 100 µM (inactive) throughout. For the same compound, the GI50 in [16], in assay [17] and in assay [20] was > 100 µM (inactive) in each case.

As to `Cc1c(C2=NN=C(/N=N/c3c(O)cccc3O)/C2=C/c2ccccc2)c(=O)n(-c2ccccc2)n1C`, the GI50 in assay [1], in assay [2], in [3], in [4], in assay [5] and in [18] was > 100 µM (inactive) throughout. Moreover, the GI50 in assay [6], in assay [7], in assay [8], in assay [9], in assay [10] and in [11] was > 100 µM (inactive) in each case. Also, the GI50 in assay [12], in assay [19], in [13], in [14], in [15] and in assay [16] was > 100 µM (inactive) each time. The GI50 in assay [17] and in [20] was > 100 µM (inactive) throughout.

For the compound `O=C1c2cccc3c2C(=O)c2c(cccc21)OCCOCCOCCOCCO3`, the GI50 in assay [1] was > 100 µM (inactive); in assay [2] it was 96.4 µM (inactive); in assay [3], > 100 µM (inactive); in assay [4] it was > 100 µM (inactive); in [5], > 100 µM (inactive); in [6], 55.2 µM (inactive). For the same compound, the GI50 is 74.5 µM (inactive) in assay [7]; > 100 µM (inactive) in [8]; > 100 µM (inactive) in assay [9]; 78.3 µM (inactive) in [10]; 61.4 µM (inactive) in assay [11]; > 100 µM (inactive) in [12]. Also, the GI50 was > 100 µM (inactive) in assay [13]; > 100 µM (inactive) in [14]; 47.2 µM (inactive) in assay [15]; > 100 µM (inactive) in assay [16]; > 100 µM (inactive) in assay [17].

On to `CC1(CO)C(O)CCC2(C)C1CCC1CC3CC12CCC3(O)CO` (stereo unspecified), for which the GI50 in [1] is 2.39 µM (inactive); in [2] it was 3.15 µM (inactive); in assay [3] it was > 100 µM (inactive); in assay [4] it was > 88.3 µM (inactive); in assay [5] it was > 36.9 µM (inactive); in assay [18] it was > 100 µM (inactive). Besides, the GI50 in assay [6] was 2.31 µM (inactive); in assay [7], 0.433 µM (active); in assay [8], 2.9 µM (inactive); in [9], 16.7 µM (inactive); in assay [10], 0.333 µM (active); in [11], 14 µM (inactive). Moreover, the GI50 is > 81.3 µM (inactive) in assay [12]; > 100 µM (inactive) in assay [19]; 2.71 µM (inactive) in assay [13]; > 64.6 µM (inactive) in assay [14]; 2.84 µM (inactive) in assay [15]; > 79.1 µM (inactive) in assay [16]. In addition, the results for the GI50 in assay [17] and in [20] were 8.36 µM (inactive) and > 100 µM (inactive), respectively.

`CCCCCCCCCCCCCCCCCC(=O)OCC1OC(OC)C(NC(=O)N(CCCl)N=O)C(O)C1O` (stereo unspecified): the GI50 in assay [2] was > 100 µM (inactive); in assay [3] it was 32.5 µM (inactive); in [4], 26.9 µM (inactive); in assay [5], 44.2 µM (inactive); in assay [18], 30.3 µM (inactive); in [6], 20.3 µM (inactive). In addition, the GI50 in assay [8] is 9.86 µM (inactive); in [9], 11.4 µM (inactive); in assay [10] it was 5.96 µM (inactive); in [11], 24.6 µM (inactive); in assay [12], 16.8 µM (inactive); in [19], 24.8 µM (inactive). Moreover, the GI50 is 18.1 µM (inactive) in assay [13], 24.9 µM (inactive) in assay [16], 8.3 µM (inactive) in assay [17] and 21.6 µM (inactive) in [20].

As for `C/C=C/c1cc(=O)c([C@@H]2OC(=O)c3cc(OC)cc(OC)c32)co1` [VERMISTATIN], the GI50 in [1] is 23.7 µM (inactive); in assay [2], 42.1 µM (inactive); in assay [3], 37 µM (inactive); in [4] it was 20.7 µM (inactive); in [18], 22 µM (inactive); in [6], 35.4 µM (inactive). The GI50 in assay [7] is 27.4 µM (inactive); in assay [8], 26.7 µM (inactive); in [10], 58.3 µM (inactive); in assay [11], 33.8 µM (inactive); in [12], 29.1 µM (inactive); in [19] it was 31.6 µM (inactive). Further, the GI50 in [13] is 58.6 µM (inactive); in assay [14], 65.5 µM (inactive); in assay [15] it was 24.1 µM (inactive); in [16] it was > 100 µM (inactive); in assay [17], 43.5 µM (inactive); in assay [20] it was 25.3 µM (inactive).
